{"source": "patent US6730705B1", "about": "“Alkoximino acetic acid amides” (Bayer Aktiengesellschaft, priority 1995, dated 2004)", "key": {"[1]": {"experiment": "log p (physical constant, Table 7)"}, "[2]": {"experiment": "log p (physical constant of Table 7)", "details": "single isomer (E or Z as listed in Table 7)"}, "[3]": {"details": "E/Z isomer mixture, first of two printed values (x/y)"}, "[4]": {"details": "E/Z isomer mixture, second of two printed values (x/y)"}}}
{"smiles": "CON=C(C(=O)NCCc1ccc(OC)c(OC)c1)c1ccc(C)cc1", "note": "(mixture of isomers) [Compound 41]", "values": [{"measurement": "log p", "setting": "[1]; [3]", "value": 2.53}, {"measurement": "log p", "setting": "[1]; [4]", "value": 2.77}]}
{"smiles": "CCON=C(C(=O)NCCc1ccc(OC)c(OC)c1)c1ccc(Cl)cc1", "note": "(mixture of isomers) [Compound 77]", "values": [{"measurement": "log p", "setting": "[1]; [3]", "value": 3.07}, {"measurement": "log p", "setting": "[1]; [4]", "value": 3.34}]}
{"smiles": "CO/N=C(/C(=O)NCCc1ccc(OC)c(OC)c1)c1ccc(Cl)cc1", "note": "[Compound 24]", "values": [{"measurement": "log p", "setting": "[1]; physical constant of Table 7", "value": "log p: 2.99"}]}
{"smiles": "CON=C(C(=O)NCCc1ccc(OC)c(OC)c1)c1ccc(C)s1", "note": "[Compound 73]", "values": [{"measurement": "log p", "setting": "[1]; physical constant of Table 7", "value": "log p: 2.46"}]}
{"smiles": "CCc1ccc(/C(=N\\OC)C(=O)NCCc2ccc(OC)c(OC)c2)cc1", "note": "[Compound 81]", "values": [{"measurement": "log p", "setting": "[1]; physical constant of Table 7", "value": "log p: 2.86"}]}
{"smiles": "CCOc1ccc(/C(=N\\OC)C(=O)NCCc2ccc(OC)c(OC)c2)cc1", "note": "[Compound 82]", "values": [{"measurement": "log p", "setting": "[1]; physical constant of Table 7", "value": "log p: 2.59"}]}
{"smiles": "CO/N=C(\\C(=O)NCCc1ccc(OC)c(OC)c1)c1ccc(C)c(C)c1", "note": "[Compound 91]", "values": [{"measurement": "log p", "setting": "[1]; physical constant of Table 7", "value": "log p: 3.00"}]}
{"smiles": "CO/N=C(/C(=O)NCCc1ccc(OC)c(OC)c1)c1ccc(Br)cc1", "note": "[Compound 96]", "values": [{"measurement": "log p", "setting": "[1]; physical constant of Table 7", "value": "log p: 2.82"}]}
{"smiles": "CO/N=C(/C(=O)NCCc1ccc(OC)c(OC)c1)c1ccc(F)cc1", "note": "[Compound 98]", "values": [{"measurement": "log p", "setting": "[1]; physical constant of Table 7", "value": "log p: 2.39"}]}
{"smiles": "CO/N=C(/C(=O)NCCc1ccc(OC)c(OC)c1)c1ccc(C)c(C)c1", "note": "[Compound 99]", "values": [{"measurement": "log p", "setting": "[1]; physical constant of Table 7", "value": "log p: 2.75"}]}
{"smiles": "CCO/N=C(/C(=O)NCCc1ccc(OC)c(OC)c1)c1ccc(C)cc1", "note": "[Compound 110]", "values": [{"measurement": "log p", "setting": "[1]; physical constant of Table 7", "value": "log p: 2.85"}]}
{"smiles": "CON=C(C(=O)NCCc1ccc(OC)c(OC)c1)c1ccc2c(c1)CCC2", "note": "[Compound 114]", "values": [{"measurement": "log p", "setting": "[1]; physical constant of Table 7", "value": "log p: 3.01"}]}
{"smiles": "CON=C(C(=O)NCCc1ccc(OC)c(OC)c1)c1ccc2c(c1)CCCC2", "note": "[Compound 117]", "values": [{"measurement": "log p", "setting": "[1]; physical constant of Table 7", "value": "log p: 3.44"}]}
{"smiles": "CCCc1ccc(C(=NOC)C(=O)NCCc2ccc(OC)c(OC)c2)cc1", "note": "[Compound 124]", "values": [{"measurement": "log p", "setting": "[1]; physical constant of Table 7", "value": "log p: 3.25"}]}
{"smiles": "CON=C(C(=O)NCCc1ccc(OC)c(OC)c1)c1ccc(OCc2ccccc2)cc1", "note": "[Compound 126]", "values": [{"measurement": "log p", "setting": "[1]; physical constant of Table 7", "value": "log p: 3.49"}]}
{"smiles": "CCc1ccc(C(=NOC)C(=O)NCCc2ccc(OC)c(OC)c2)s1", "note": "[Compound 127]", "values": [{"measurement": "log p", "setting": "[1]; physical constant of Table 7", "value": "log p: 3.22"}]}
{"smiles": "CCCCc1ccc(C(=NOC)C(=O)NCCc2ccc(OC)c(OC)c2)cc1", "note": "[Compound 132]", "values": [{"measurement": "log p", "setting": "[1]; physical constant of Table 7", "value": "log p: 3.62"}]}
{"smiles": "CCc1ccc(C(=NOC)C(=O)NCCc2ccc(OC)c(OC)c2)s1", "note": "[Compound 143]", "values": [{"measurement": "log p", "setting": "[1]; physical constant of Table 7", "value": "log p: 2.77"}]}
{"smiles": "CCON=C(C(=O)NCCc1ccc(OC)c(OC)c1)c1ccc(Br)cc1", "note": "[Compound 146]", "values": [{"measurement": "log p", "setting": "[1]; physical constant of Table 7", "value": "log p: 3.15"}]}
{"smiles": "CCON=C(C(=O)NCCc1ccc(OC)c(OC)c1)c1ccc2c(c1)CCC2", "note": "[Compound 170]", "values": [{"measurement": "log p", "setting": "[2]", "value": "log p: 3.25"}]}
{"smiles": "CO/N=C(/C(=O)NCCc1ccc(OC)c(OC)c1)c1ccc(C2CCCCC2)cc1", "note": "[Compound 171]", "values": [{"measurement": "log p", "setting": "[2]", "value": "log p: 4.03"}]}
{"smiles": "CCON=C(C(=O)NCCc1ccc(OC)c(OC)c1)c1ccc2c(c1)CCCC2", "note": "[Compound 173]", "values": [{"measurement": "log p", "setting": "[2]", "value": "log p: 3.53"}]}
